These results are taken from patent publication US8815927B2, “Bivalent diazo bicyclic Smac mimetics and the uses thereof” (The Regents of the University of Michigan, priority 2009, dated 2014).

The target of one test is cIAP1 BIR3 Protein (Homo sapiens (Human), UniProt Q13490). As to the kind of experiment: Fluorescence polarization-based competitive binding assay, cIAP-1 BIR3. The following applies: 10 nM cIAP-1 BIR3 protein, 2 nM SM5F tracer. How it is done: (§1) An in vitro fluorescence polarization (FP) based binding assay was used to test the binding ability of the compounds of the present invention to certain IAP proteins (Nikolovska-Coleska et al., Anal. Biochem. 332:261-73 (2004)).
cIAP1 BIR3 Protein, sequence (Q13490 253-363): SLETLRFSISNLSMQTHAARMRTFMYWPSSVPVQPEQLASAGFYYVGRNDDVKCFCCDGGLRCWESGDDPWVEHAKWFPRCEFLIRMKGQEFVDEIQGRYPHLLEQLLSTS
(§2) Human cIAP-1 BIR3-only (residues 253-363) and cIAP2 BIR3-only (residues 238-349) were cloned into pHis-TEV vector, produced and purified using the same method as for the XIAP BIR3 protein.
(§3) In competitive binding experiments, 10 nM of cIAP-1 BIR3 protein and 2 nM of SM5F tracer were used. […] In competitive binding experiments, 25 nM of cIAP-2 BIR3 protein and 2 nM of SM5F tracer were used.
(§4) For each competitive binding experiment, polarization values were measured after 2-3 hours incubation using an Ultra plate reader. The IC50 value, the inhibitor concentration at which 50% of bound tracer was displaced, was determined from the plot using nonlinear least-squares analysis. Curve fitting was performed using the PRISM software (GraphPad Software, Inc., San Diego, Calif.). Ki value for each compound was calculated based upon the IC50 value using a previously reported algorithm and its associated computer program (Nikolovska-Coleska et al., Anal. Biochem. 332:261-73 (2004)).

In test [1] the target is XIAP Linker-BIR2-BIR3 Protein (Homo sapiens (Human), UniProt P98170). Nature of the test: Fluorescence polarization-based binding assay, XIAP Linker-BIR2-BIR3. The following applies: 3 nM XIAP protein (residues 120-356), 1 nM Smac2-F. The text has this:
An in vitro fluorescence polarization (FP) based binding assay was used to test the binding ability of the compounds of the present invention to XIAP linker-BIR2-BIR3 protein (Nikolovska-Coleska et al., Anal. Biochem. 374:87-98 (2008)).
For this assay a bivalent Smac peptido-mimetic labeled with a fluorescence tag (FAM), termed Smac2-F, was employed. […] The recombinant XIAP Linker-BIR2-BIR3 protein of human XIAP (residues 120-356) fused to His-tag was stable and soluble, and was used for the FP-based binding assay.
For the competitive binding experiments, a tested compound was incubated with 3 nM of XIAP protein (residues 120-356) and 1 nM of Smac2-F in the assay buffer (100 mM potassium phosphate, pH 7.5; 100 μg/ml bovine gamma globulin; 0.02% sodium azide) in black, round-bottom plates. For each experiment, the controls include XIAP and Smac2-F peptide (equivalent to 0% inhibition), and Smac-2F only (equal to 100% of inhibition). The polarization values are measured after 2 hours incubation, using the Ultra plate reader. The IC50 value, the inhibitor concentration at which 50% of bound tracer was displaced, is determined from the plot using nonlinear least-squares analysis. Curve fitting is performed using GraphPad Prism® software.

Test [2] relates to MDA-MB-231 human breast cancer cell line. Nature of the test: Cancer cell growth inhibition, WST-8. In kind it is cell-based. The following applies: MDA-MB-231, 96 h, 4 days. How it is done: (§5) The effect of the compounds of the present invention on the growth of various cancer cell lines was tested. Cells were seeded in 96-well flat bottom cell culture plates at a density of 3000 cells/well with a tested compound and incubated at 37° C. in an atmosphere of 95% air and 5% CO2 for 4 days. The rate of cell growth inhibition after treatment with different concentrations of the compound was determined using a WST-8 kit (2-(2-methoxy-4-nitrophenyl)-3-(4-nitrophenyl)-5-(2,4 disulfophenyl)-2H-tetrazolium monosodium salt; Dojindo Molecular Technologies, Inc., Gaithersburg, Md.). WST-8 was added at a final concentration of 10% to each well, and then the plates were incubated at 37° C. for 2-3 hrs. The absorbance of the samples was measured at 450 nm using a ULTRA Tecan Reader (Molecular Device). The concentration of the tested compound that inhibited cell growth by 50% (IC50) was calculated by comparing absorbance in untreated cells and the cells treated with the tested compound.

The subject of test [3] is SK-OV-3 ovarian cancer cell line. As to the kind of experiment: Cancer cell growth inhibition, WST-8. It counts as cell-based. The following applies: Homo sapiens, SK-OV-3, 96 h, 4 days. How it is done:
as §5

For another test, the target named is cIAP2 BIR3 Protein (Homo sapiens (Human), UniProt Q13489). As to the kind of experiment: Fluorescence polarization-based competitive binding assay, cIAP-2 BIR3. The following applies: 25 nM cIAP-2 BIR3 protein, 2 nM SM5F tracer. How it is done:
as §1, §2, §3, §4

Test [4] has as its system breast cancer MDA-MB-231 cell line. As to the kind of experiment: Induction of cell death, trypan blue exclusion assay. It counts as cell-based, human. The following applies: MDA-MB-231, 48 hours, FIG. 1. How it is done: (§6) The ability of SM-1258 and SM-1267 to induce cell death was tested in the breast cancer MDA-MB-231 (FIG. 1) and ovarian cancer SK-OV-3 (FIG. 2) cell lines. Cells were treated with SM-1258 and SM-1267 for 48 hours and cell viability was determined using the trypan blue exclusion assay.

The subject of test [5] is ovarian cancer SK-OV-3 cell line. The test is described as above. In kind it is cell-based, human. The following applies: SK-OV-3, 48 hours, FIG. 2. How it is done: as §6
In another test the target is XIAP BIR3 (Homo sapiens (Human), UniProt P98170). The following applies: cited from earlier work.
XIAP BIR3, sequence (P98170 241-356): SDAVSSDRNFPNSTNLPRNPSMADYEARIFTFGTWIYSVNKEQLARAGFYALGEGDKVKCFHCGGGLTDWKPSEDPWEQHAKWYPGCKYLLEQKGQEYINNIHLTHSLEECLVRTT

cIAP2 BIR3 Protein, sequence (Q13489 238-349): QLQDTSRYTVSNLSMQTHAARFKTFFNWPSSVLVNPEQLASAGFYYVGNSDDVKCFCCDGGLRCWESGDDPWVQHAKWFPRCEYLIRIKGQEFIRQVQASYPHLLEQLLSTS
XIAP Linker-BIR2-BIR3 Protein, sequence (P98170 120-356): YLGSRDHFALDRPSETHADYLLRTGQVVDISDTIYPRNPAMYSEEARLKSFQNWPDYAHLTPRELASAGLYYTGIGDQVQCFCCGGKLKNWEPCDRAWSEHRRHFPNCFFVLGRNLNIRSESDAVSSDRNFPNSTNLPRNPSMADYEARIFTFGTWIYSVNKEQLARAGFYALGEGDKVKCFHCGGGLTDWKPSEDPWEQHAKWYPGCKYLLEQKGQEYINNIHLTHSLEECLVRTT

Consider `CN[C@@H](C)C(=O)N[C@H]1CN(C(=O)CCCCCCCCCCC(=O)N2CC[C@H]3CC[C@@H](c4nc5cccc(-c6ccccc6)c5[nH]4)N3C(=O)[C@@H](NC(=O)[C@H](C)NC)C2)CC[C@H]2CC[C@@H](c3nc4c(-c5ccccc5)cccc4[nH]3)N2C1=O` [SM-1258], for which the IC50 was below 50 nM at cIAP1 BIR3 Protein, below 10 nM in test [1], below 10 nM in test [2] and below 20 nM in test [3].
As to `CN[C@@H](C)C(=O)N[C@H]1CN(C(=O)CCCCOCCCCC(=O)N2CC[C@H]3CC[C@@H](c4nc5cccc(-c6ccccc6)c5[nH]4)N3C(=O)[C@@H](NC(=O)[C@H](C)NC)C2)CC[C@H]2CC[C@@H](c3nc4c(-c5ccccc5)cccc4[nH]3)N2C1=O` [SM-1259], the IC50 at cIAP1 BIR3 Protein is below 10 nM; on cIAP2 BIR3 Protein, below 20 nM; in test [1], below 10 nM; in test [2], below 10 nM.
With `CN[C@@H](C)C(=O)N[C@H]1CN(C(=O)CCCCC(=O)N2CC[C@H]3CC[C@@H](c4nc5cccc(-c6ccccc6)c5[nH]4)N3C(=O)[C@@H](NC(=O)[C@H](C)NC)C2)CC[C@H]2CC[C@@H](c3nc4c(-c5ccccc5)cccc4[nH]3)N2C1=O` [SM-1265], the IC50 is below 10 nM on cIAP1 BIR3 Protein, below 10 nM at cIAP2 BIR3 Protein, below 50 nM in test [1] and below 50 nM in test [2].
For the molecule `CN[C@@H](C)C(=O)N[C@H]1CN(C(=O)CCCCCCC(=O)N2CC[C@H]3CC[C@@H](c4nc5cccc(-c6ccccc6)c5[nH]4)N3C(=O)[C@@H](NC(=O)[C@H](C)NC)C2)CC[C@H]2CC[C@@H](c3nc4c(-c5ccccc5)cccc4[nH]3)N2C1=O` [SM-1266], the IC50 on cIAP1 BIR3 Protein was below 10 nM; at cIAP2 BIR3 Protein, below 20 nM; in test [1], below 10 nM; in test [2], below 10 nM.
On to `CN[C@@H](C)C(=O)N[C@H]1CN(C(=O)CCCCCCCCC(=O)N2CC[C@H]3CC[C@@H](c4nc5cccc(-c6ccccc6)c5[nH]4)N3C(=O)[C@@H](NC(=O)[C@H](C)NC)C2)CC[C@H]2CC[C@@H](c3nc4c(-c5ccccc5)cccc4[nH]3)N2C1=O` [SM-1267], for which the IC50 at cIAP1 BIR3 Protein is below 10 nM; on cIAP2 BIR3 Protein, below 50 nM; in test [1] it was below 10 nM; in test [2], below 10 nM. In addition, the “induction of cell death” value in test [4] and in test [5] was “induced cell death” in each case.

B1: mature Smac protein: second mitochondria-derived activator of caspases, mature polypeptide (protein, UniProt Q9NR28 22-239, looked up)
Diablo IAP-binding …: LCVPVVANFKKRCFSELIRPWHKTVTIGFGVTLCAVPIAQKSEPHSLSSEALMRRAVSLVTDSTSTFLSQTTYALIEAITEYTKAVYTLTSLYRQYTSLLGKMNSEEEDEVWQVIIGARAEMTSKHQEYLKLETTWMTAVGLSEMAAEAAYQTGADQASITARNHIQLVKLQVEEVHQLSRKAETKLAEAQIEELRQKTQEEGEERAESEQEAYLRED
Regarding B1, in the test with XIAP BIR3, the dissociation constant (Kd) is 420 nM.
